We go through twelve compounds from patent US10723741B1, “DNA polymerase IIIC inhibitors and use thereof” (Acurx Pharmaceuticals, LLC, priority 2018, dated 2020).

Values after ≈ are worked out from the molar mass of the structure shown. Read-outs that look alike come from different tables or passages of the source. Some results are limits rather than exact numbers.

Holding throughout (type): cell-based
Assay [1] has as its system Enterococcus faecium ATCC 700221 (VRE). In words: Broth microdilution MIC, E. faecium ATCC 700221 (VRE). The conditions noted are these: Enterococcus faecium, broth microdilution, 37° C., 20 hours. In a few lines:
(§1)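 Broth microdilution in strain-specific test medium with ~5.0×10^5 cfu/ml inoculum, 1% DMSO and two-fold compound dilutions from 64 to 0.0625 μg/ml. Plates were held 20 hours at 37° C in ambient air. S. pneumoniae colonies were grown beforehand on blood agar in 5% CO2.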

For assay [2], the system named is Escherichia coli ATCC 25922. As to the kind of experiment: Broth microdilution MIC, E. coli ATCC 25922 (MHIIB w & w/o 4 mM EDTA). The conditions noted are these: broth microdilution, 37° C., 20 hours; for MIC: Escherichia coli, ATCC25922, without EDTA, read-out: MIC E. coli ATCC 25922; for MIC E. coli ATCC 25922 + 4 mM EDTA: with 4 mM EDTA. In a few lines:
as §1

Assay [3] has as its system Streptococcus pneumoniae ATCC 49619. As to the kind of experiment: Broth microdilution MIC, S. pneumoniae ATCC 49619. The conditions noted are these: ATCC49619, broth microdilution, 37° C., 20 hours, read-out: MIC S. pneumoniae ATCC 49619. The gist of the method:
as §1

The subject of assay [4] is Staphylococcus aureus NRS384 (MRSA). In words: Broth microdilution MIC, S. aureus NRS384 (MRSA). The conditions noted are these: Staphylococcus aureus, broth microdilution, 37° C., 20 hours. The gist of the method: as §1
The subject of assay [5] is Enterococcus faecalis ATCC 29212. In words: Broth microdilution MIC, E. faecalis ATCC 29212. The conditions noted are these: ATCC29212, broth microdilution, 37° C., 20 hours, read-out: MIC E. faecalis ATCC 29212. The gist of the method:
as §1

The subject of assay [6] is Staphylococcus aureus ATCC 29213 (MSSA). As to the kind of experiment: Broth microdilution MIC, S. aureus ATCC 29213 (MSSA). The conditions noted are these: broth microdilution, 37° C., 20 hours, read-out: MIC S. aureus ATCC 29213 (MSSA). The gist of the method: as §1
For assay [7], the system named is Bacillus subtilis ATCC 6633. In words: Broth microdilution MIC, B. subtilis ATCC 6633. The conditions noted are these: ATCC6633, broth microdilution, 37° C., 20 hours, read-out: MIC B. subtilis ATCC 6633. The gist of the method: as §1
Where [8] appears, read: read-out: MIC E. faecium ATCC 700221 (VRE).

Turning to `O=c1[nH]c(NCc2ccc(Cl)c(Cl)c2)nc2cnn(-c3ccncc3)c12` [Compound 222, 5-[(3,4-dichlorophenyl)methylamino]-1-(4-pyridyl)-6H-pyrazolo[4,3-d]pyrimidin-7-one], the MIC in assay [1] (setting [8]) is 2 µg/mL (≈ 5.16 µM); in assay [1] (MHIIB, read-out: MIC against E. faecium ATCC 700221 (VRE)), at most 1 µg/mL; in assay [2], above 64 µg/mL; in assay [3], 2 µg/mL (≈ 5.16 µM); in assay [4] (read-out: MIC NRS 384 (MRSA)), 1 µg/mL (≈ 2.58 µM); in assay [4] (MHIIB, read-out: MIC against S. aureus NRS 384 (MRSA)) it was at most 1 µg/mL. Moreover, the MIC in assay [5] is 4 µg/mL (≈ 10.3 µM); in assay [6], 2 µg/mL (≈ 5.16 µM); in assay [7], 1 µg/mL (≈ 2.58 µM). In addition, the “MIC E. coli ATCC 25922 + 4 mM EDTA” value in assay [2] was 64 µg/mL.

Turning to `CP(C)(=O)CCCCn1nc(F)c2nc(NCc3ccc(F)c(F)c3)[nH]c(=O)c21` [Compound 314, 5-[(3,4-Difluorophenyl)methylamino]-1-(4-dimethylphosphorylbutyl)-3-fluoro-6H-pyrazolo[4,3-d]pyrimidin-7-one], the MIC is 32 µg/mL (≈ 74.9 µM) in assay [1] (setting [8]); above 64 µg/mL in assay [2]; 16 µg/mL (≈ 37.4 µM) in assay [3]; 32 µg/mL (≈ 74.9 µM) in assay [4] (S. aureus NRS 384, read-out: MIC NRS 384 (MRSA)); above 64 µg/mL in assay [5]; 64 µg/mL (≈ 150 µM) in assay [6]. For the same compound, the MIC in assay [7] stood at 16 µg/mL (≈ 37.4 µM). Further, in assay [2], the “MIC E. coli ATCC 25922 + 4 mM EDTA” value is above 64 µg/mL.

As to `Cl.O=c1[nH]c(NCc2ccc(Cl)c(Cl)c2)nc2cnn(CCc3cnccn3)c12` [Compound 124, 5-((3,4-Dichlorobenzyl)amino)-1-(2-(pyrazin-2-yl)ethyl)-1H-pyrazolo[4,3-d]pyrimidin-7(6H)-one hydrochloride], the MIC in assay [1] (setting [8]) was 2 µg/mL; in assay [2], above 64 µg/mL; in assay [3], 8 µg/mL; in assay [4] (read-out: MIC NRS 384 (MRSA)) it was 2 µg/mL; in assay [5], 4 µg/mL; in assay [6] it was 4 µg/mL. For the same compound, in assay [7], the MIC came out at 1 µg/mL. The “MIC E. coli ATCC 25922 + 4 mM EDTA” value in assay [2] was above 64 µg/mL.

On to `COc1cccnc1C(=O)N1CCC(n2ncc3nc(NCc4ccc(Cl)c(Cl)c4)[nH]c(=O)c32)CC1.Cl` [Compound 268, 5-((3,4-Dichlorobenzyl)amino)-1-(1-(3-methoxypicolinoyl)piperidin-4-yl)-1H-pyrazolo[4,3-d]pyrimidin-7(6H)-one hydrochloride], for which the MIC was 4 µg/mL in assay [1] (setting [8]); above 64 µg/mL in assay [2]; 4 µg/mL in assay [3]; 8 µg/mL in assay [4] (read-out: MIC NRS 384 (MRSA)); 8 µg/mL in assay [5]; 8 µg/mL in assay [6]. Further, the MIC in assay [7] turned out to be 2 µg/mL. For the same compound, the “MIC E. coli ATCC 25922 + 4 mM EDTA” value in assay [2] is above 64 µg/mL.

On to `Cn1ncc2nc(NCc3cscn3)[nH]c(=O)c21` [Compound 15, 1-Methyl-5-((thiazol-4-ylmethyl)amino)-1H-pyrazolo[4,3-d]pyrimidin-7(6H)-one], for which the MIC in assay [1] (setting [8]), in assay [2], in assay [3], in assay [4] (read-out: MIC NRS 384 (MRSA)), in assay [5] and in assay [6] was above 64 µg/mL throughout. Also, the MIC in assay [7] was above 64 µg/mL. The “MIC E. coli ATCC 25922 + 4 mM EDTA” value in assay [2] is above 64 µg/mL.

As for `Cn1ncc2nc(NCc3cc(Cl)c(Cl)cn3)[nH]c(=O)c21.O=C(O)C(F)(F)F` [Compound 36, 5-(((4,5-Dichloropyridin-2-yl)methyl)amino)-1-methyl-1H-pyrazolo[4,3-d]pyrimidin-7(6H)-one-2,2,2-trifluoroacetate], the MIC in assay [1] (setting [8]), in assay [2], in assay [3], in assay [4] (read-out: MIC NRS 384 (MRSA)), in assay [5] and in assay [6] was above 64 µg/mL each time. Moreover, the MIC in assay [7] was above 64 µg/mL. In assay [2], the “MIC E. coli ATCC 25922 + 4 mM EDTA” value was above 64 µg/mL.

Regarding `COCCn1cc2nc(NCc3ccc(Cl)c(Cl)c3)[nH]c(=O)c2n1` [Compound 128, 5-((3,4-Dichlorobenzyl)amino)-2-(2-methoxyethyl)-2H-pyrazolo[4,3-d]pyrimidin-7(6H)-one], the minimal inhibitory concentration (MIC) in assay [1] (setting [8]) is 32 µg/mL (≈ 86.9 µM); in assay [2], above 64 µg/mL; in assay [3] it was 16 µg/mL (≈ 43.5 µM); in assay [4] (read-out: MIC NRS 384 (MRSA)), 32 µg/mL (≈ 86.9 µM); in assay [5], 32 µg/mL (≈ 86.9 µM); in assay [6] it was 32 µg/mL (≈ 86.9 µM). Further, in assay [7], the MIC worked out at 16 µg/mL (≈ 43.5 µM). Besides, the “MIC E. coli ATCC 25922 + 4 mM EDTA” value in assay [2] was above 64 µg/mL.

As to `O=C(O)C(CCCn1ncc2nc(NCc3ccc(Cl)c(Cl)c3)[nH]c(=O)c21)c1ccccc1` (centres unmarked) [Compound 201, 5-(5-((3,4-dichlorobenzyl)amino)-7-oxo-6,7-dihydro-1H-pyrazolo[4,3-d]pyrimidin-1-yl)-2-phenylpentanoic acid], the MIC in assay [1] (setting [8]) is 16 µg/mL (≈ 32.9 µM); in assay [2], above 64 µg/mL; in assay [3], 16 µg/mL (≈ 32.9 µM); in assay [4] (read-out: MIC NRS 384 (MRSA)) it was 32 µg/mL (≈ 65.8 µM); in assay [5] it was 32 µg/mL (≈ 65.8 µM); in assay [6] it was 32 µg/mL (≈ 65.8 µM). Further, the MIC in assay [7] turned out to be 64 µg/mL (≈ 132 µM). For the same compound, in assay [2], the “MIC E. coli ATCC 25922 + 4 mM EDTA” value is reported as above 64. ug/ml.

Turning to `O=c1[nH]c(NCc2ccc(Cl)c(Cl)c2)nc2cnn(CCOCCCO)c12` [Compound 168, 5-[(3,4-dichlorophenyl)methylamino]-1-[2-(3-hydroxypropoxy)ethyl]-6H-pyrazolo[4,3-d]pyrimidin-7-one], the MIC in assay [1] (setting [8]) is 4 µg/mL (≈ 9.7 µM); in assay [2], above 64 µg/mL; in assay [3], 8 µg/mL (≈ 19.4 µM); in assay [4] (read-out: MIC NRS 384 (MRSA)), 8 µg/mL (≈ 19.4 µM); in assay [5], 8 µg/mL (≈ 19.4 µM); in assay [6], 8 µg/mL (≈ 19.4 µM). For the same compound, the MIC in assay [7] stood at 4 µg/mL (≈ 9.7 µM). The “MIC E. coli ATCC 25922 + 4 mM EDTA” value in assay [2] is above 64 µg/mL.

For the compound `CN(CCn1ncc2nc(NCc3ccc(Cl)c(Cl)c3)[nH]c(=O)c21)C(=O)c1cc(O)nnc1Cl` [Compound 87, 3-chloro-N-(2-(5-((3,4-dichlorobenzyl)amino)-7-oxo-6,7-dihydro-1H-pyrazolo[4,3-d]pyrimidin-1-yl)ethyl)-6-hydroxy-N-methylpyridazine-4-carboxamide], the MIC in assay [1] (setting [8]) was 32 µg/mL (≈ 61.1 µM); in assay [2] it was above 64 µg/mL; in assay [3] it was 8 µg/mL (≈ 15.3 µM); in assay [4] (read-out: MIC NRS 384 (MRSA)), above 64 µg/mL; in assay [5], 32 µg/mL (≈ 61.1 µM); in assay [6] it was 64 µg/mL (≈ 122 µM). The MIC in assay [7] was 64 µg/mL (≈ 122 µM). Besides, in assay [2], the “MIC E. coli ATCC 25922 + 4 mM EDTA” value is above 64 µg/mL.

For the compound `O=c1[nH]c(NCc2ccc(Cl)c(Cl)c2)nc2cnn(Cc3coc(CO)n3)c12` [Compound 171, 5-((3,4-dichlorobenzyl)amino)-1-((2-(hydroxymethyl)oxazol-4-yl)methyl)-1H-pyrazolo[4,3-d]pyrimidin-7(6H)-one], the MIC in assay [1] (setting [8]) is 8 µg/mL (≈ 19 µM); in assay [2], above 64 µg/mL; in assay [3] it was 8 µg/mL (≈ 19 µM); in assay [4] (read-out: MIC NRS 384 (MRSA)), 16 µg/mL (≈ 38 µM); in assay [5], 16 µg/mL (≈ 38 µM); in assay [6], 32 µg/mL (≈ 76 µM). Further, the MIC in assay [7] is 4 µg/mL (≈ 9.5 µM). The “MIC E. coli ATCC 25922 + 4 mM EDTA” value in assay [2] was above 64 µg/mL.

For the compound `CC(C)(C)OC(=O)N1CCCC(CN2CCC(n3ncc4nc(NCc5ccc(Cl)c(Cl)c5)[nH]c(=O)c43)CC2)C1.Cl` (centres unmarked) [Compound 250], the minimum inhibitory concentration (MIC) in assay [1] (setting [8]) is 4 µg/mL; in assay [2], above 64 µg/mL; in assay [3], 8 µg/mL; in assay [4] (read-out: MIC NRS 384 (MRSA)), above 64 µg/mL; in assay [5] it was above 64 µg/mL; in assay [6], above 64 µg/mL. Moreover, the MIC in assay [7] came to 4 µg/mL. Also, the “MIC E. coli ATCC 25922 + 4 mM EDTA” value in assay [2] is above 64 µg/mL.
